From patent publication US20230365556A1, “N-ACYL AMINO ACID COMPOUNDS AND METHODS OF USE” (Pliant Therapeutics, Inc., priority 2016, published 2023)
Structures can show the parent of a compound that is named as a salt.

The compounds below were run against αvβ1 integrin (αvβ1 expressing CHO cells) (Homo sapiens (Human), UniProt P05556+P06756) (assay: Cell adhesion assay: inhibition of αvβ1 expressing CHO cells attaching to TGFβ1LAP). Details: 1 h at 37° C., crystal violet absorbance 595 nm, read-out: αvβ1 Inhibition IC50 (nM)-range.
Type: cell-based
Description: Example B1—Cell Adhesion Assay
In order to determine the potency, the compounds were assessed for their ability to inhibit αvβ1 expressing CHO cells attach to TGFβ1LAP. Microplates were coated overnight with 2 ug/ml TGFβ1LAP at 4° C., and blocked with 2% BSA/PBS for 30 min before the assay. Cells were detached and washed in PBS. After that the cells were resuspended in DMEM at 1.0×10^6 cells/ml, fifty microliter of cell suspension and fifty microliter of compound solution were added into the plate. The plates were incubated for one hour at 37° C. in humidified 5% carbon dioxide. Non-adherent cells were removed by centrifugation top side down at 58 g for 5 min. The attached cells were fixed and stained with 0.5% crystal violet (in 20% methanol and 1% formaldehyde) and the wells washed with PBS. Crystal violet was dissolved in 2% Triton-X in PBS. The relative number of cells in each well was evaluated by the absorbance at 595 nm in a microplate reader (Tecan). IC50 values were determined by non-linear regression with four parameters (Graphpad Prism 7.01, Y=Bottom+(Top−Bottom)/(1+10^((Log IC50−X)*HillSlope)).
The compounds tested were compound samples prepared according to procedures described in the Synthetic Examples section, with the stereochemical purity as indicated in the Examples indicated for Example or Compound No. 1-62. The compounds tested were predominantly S-configuration at the alpha carbon of the amino acid scaffold, except for compounds 123, 124, and 125 which were predominantly R-configuration at the alpha carbon of the amino acid scaffold. “Example or Compound No.” in Table B-1 refers to the compound illustrated in the examples for Example or Compound Nos. 1-62 (the compounds of Examples 1-62 are labeled as Compounds 1-62 in Table 1). “Example or Compound No.” in Table B-1 refers to the compound number as indicated in Table 1 or Table 2 for Example or Compound Nos. 63-126.

αvβ1 integrin (αvβ1 expressing CHO cells), sequence (P06756 31-889): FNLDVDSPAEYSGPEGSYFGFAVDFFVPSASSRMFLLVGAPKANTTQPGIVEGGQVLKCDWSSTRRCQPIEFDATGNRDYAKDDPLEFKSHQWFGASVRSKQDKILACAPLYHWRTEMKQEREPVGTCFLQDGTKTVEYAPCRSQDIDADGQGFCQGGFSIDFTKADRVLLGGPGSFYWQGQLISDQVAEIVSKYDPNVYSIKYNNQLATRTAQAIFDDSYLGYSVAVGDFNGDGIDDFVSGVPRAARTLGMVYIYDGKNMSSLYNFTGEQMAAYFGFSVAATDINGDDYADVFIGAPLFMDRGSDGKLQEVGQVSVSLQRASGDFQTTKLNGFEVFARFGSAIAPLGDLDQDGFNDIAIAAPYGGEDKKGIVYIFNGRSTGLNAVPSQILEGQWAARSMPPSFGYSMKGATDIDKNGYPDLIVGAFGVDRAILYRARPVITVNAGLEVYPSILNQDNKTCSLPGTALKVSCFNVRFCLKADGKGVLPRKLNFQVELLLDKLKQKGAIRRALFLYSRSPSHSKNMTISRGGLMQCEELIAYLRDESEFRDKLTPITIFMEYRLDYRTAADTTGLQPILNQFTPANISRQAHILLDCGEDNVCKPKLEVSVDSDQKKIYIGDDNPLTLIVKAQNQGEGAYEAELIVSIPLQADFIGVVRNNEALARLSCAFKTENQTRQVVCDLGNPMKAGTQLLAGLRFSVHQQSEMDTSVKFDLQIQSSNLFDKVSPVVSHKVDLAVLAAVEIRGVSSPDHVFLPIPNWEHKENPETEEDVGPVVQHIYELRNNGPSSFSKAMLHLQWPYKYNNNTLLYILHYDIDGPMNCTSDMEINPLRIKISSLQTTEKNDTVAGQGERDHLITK
αvβ1 integrin (αvβ1 expressing CHO cells), sequence (P06756 891-1048 partner): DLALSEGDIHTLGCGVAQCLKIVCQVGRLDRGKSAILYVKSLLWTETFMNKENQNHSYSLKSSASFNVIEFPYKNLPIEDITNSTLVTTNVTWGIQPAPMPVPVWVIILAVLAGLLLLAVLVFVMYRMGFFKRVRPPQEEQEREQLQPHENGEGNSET
αvβ1 integrin (αvβ1 expressing CHO cells), sequence (P05556 21-798): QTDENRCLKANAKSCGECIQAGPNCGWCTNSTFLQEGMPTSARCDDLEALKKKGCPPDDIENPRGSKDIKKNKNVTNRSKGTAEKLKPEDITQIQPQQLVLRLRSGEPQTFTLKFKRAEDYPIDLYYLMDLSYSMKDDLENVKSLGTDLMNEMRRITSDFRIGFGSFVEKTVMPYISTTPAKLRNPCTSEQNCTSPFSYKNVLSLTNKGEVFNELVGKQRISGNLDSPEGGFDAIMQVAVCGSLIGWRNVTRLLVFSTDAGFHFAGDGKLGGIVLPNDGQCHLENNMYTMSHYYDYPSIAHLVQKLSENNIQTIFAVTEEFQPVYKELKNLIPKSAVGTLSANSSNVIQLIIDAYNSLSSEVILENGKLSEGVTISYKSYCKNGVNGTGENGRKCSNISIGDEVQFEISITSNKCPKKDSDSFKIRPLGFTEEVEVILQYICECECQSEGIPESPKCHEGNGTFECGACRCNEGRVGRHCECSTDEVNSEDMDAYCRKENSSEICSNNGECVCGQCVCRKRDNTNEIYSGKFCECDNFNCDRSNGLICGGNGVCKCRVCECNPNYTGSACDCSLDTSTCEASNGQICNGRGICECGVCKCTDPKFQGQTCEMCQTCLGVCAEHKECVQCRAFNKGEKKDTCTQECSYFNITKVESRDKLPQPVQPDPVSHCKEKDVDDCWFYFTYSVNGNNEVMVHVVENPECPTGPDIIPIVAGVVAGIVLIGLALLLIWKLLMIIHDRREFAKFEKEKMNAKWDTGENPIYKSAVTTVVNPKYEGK

IC50, > 1000 nM:
O=C(N[C@@H](CCCCCCCCNC1=NCCO1)C(=O)O)c1c(Cl)cccc1Cl [Example 48, (S)-2-(2,6-dichlorobenzamido)-10-((4,5-dihydrooxazol-2-yl)amino)decanoic acid]
CN1CCN=C(NCCCCOc2ccc(C[C@H](NC(=O)c3c(Cl)cccc3Cl)C(=O)O)cc2)C1=O [Example 17, (S)-2-(2,6-dichlorobenzamido)-3-(4-(4-((4-methyl-3-oxo-3,4,5,6-tetrahydropyrazin-2-yl)amino)butoxy)phenyl)propanoic acid]
CN1C(=O)CN=C1NCCCCOc1ccc(C[C@H](NC(=O)c2c(Cl)cccc2Cl)C(=O)O)cc1 [Example 57, (S)-2-(2,6-dichlorobenzamido)-3-(4-(4-((1-methyl-5-oxo-4,5-dihydro-1H-imidazol-2-yl)amino)butoxy)phenyl)propanoic acid]
O=C(N[C@@H](Cc1ccc(OCCCCNC2=NCCCO2)cc1)C(=O)O)c1c(Cl)cccc1Cl [Example 59, (S)-2-(2,6-dichlorobenzamido)-3-(4-(4-((5,6-dihydro-4H-1,3-oxazin-2-yl)amino)butoxy)phenyl)propanoic acid]
CN1CC(NCCCCOc2ccc(C[C@H](NC(=O)c3c(Cl)cccc3Cl)C(=O)O)cc2)=NCC1=O [Example 58, (S)-2-(2,6-dichlorobenzamido)-3-(4-(4-((4-methyl-5-oxo-3,4,5,6-tetrahydropyrazin-2-yl)amino)butoxy)phenyl)propanoic acid]
O=C(N[C@@H](Cc1ccc(OCCCc2ccc3c(n2)NCCC3)cc1)C(=O)O)c1cncc(-c2ccccc2)n1 [Example 4, (S)-2-(6-phenylpyrazine-2-carboxamido)-3-(4-(3-(5,6,7,8-tetrahydro-1,8-naphthyridin-2-yl)propoxy)phenyl)propanoic acid]
O=C(N[C@@H](Cc1ccc(O[C@H]2CC[C@H](Nc3ccccn3)CC2)cc1)C(=O)O)c1c(Cl)cccc1Cl [Example 39, (2S)-2-[(2,6-dichlorobenzoyl)amino]-3-[4-[4-trans-(2-pyridylamino)cyclohexoxy]phenyl]propanoic acid]

IC50, 250 to 1000 nM:
O=C(NC(CN1CC(OCCCc2ccc3c(n2)NCCC3)C1)C(=O)O)c1c(Cl)cccc1Cl (stereo not drawn) [Compound 74, 2-(2,6-dichlorobenzamido)-3-(3-(3-(5,6,7,8-tetrahydro-1,8-naphthyridin-2-yl)propoxy)azetidin-1-yl)propanoic acid]

IC50, < 50 nM:
O=C(NC(Cc1ccc(OCCCC2Cc3cccnc3N2)cc1)C(=O)O)c1c(Cl)cccc1Cl (stereo not drawn) [Example 18, 2-(2,6-dichlorobenzamido)-3-(4-(3-(2,3-dihydro-1H-pyrrolo[2,3-b]pyridin-2-yl)propoxy)phenyl)propanoic acid]
O=C(N[C@@H](Cc1ccc(OCCCc2ccc3c(n2)NCCC3)cc1)C(=O)O)c1c(F)cccc1F [Example 7, (S)-2-(2,6-difluorobenzamido)-3-(4-(3-(5,6,7,8-tetrahydro-1,8-naphthyridin-2-yl)propoxy)phenyl)propanoic acid]
O=C(N[C@@H](CCCCCCCc1ccc2c(n1)NCCC2)C(=O)O)c1cccc2[nH]ncc12 [Compound 116]
N#Cc1cc(Cl)c(C(=O)N[C@@H](Cc2ccc(OCCCc3ccc4c(n3)NCCC4)cc2)C(=O)O)c(Cl)c1 [Example 5, (S)-2-(2,6-dichloro-4-cyanobenzamido)-3-(4-(3-(5,6,7,8-tetrahydro-1,8-naphthyridin-2-yl)propoxy)phenyl)propanoic acid]
O=C(N[C@@H](Cc1ccc(OCCCCNC2=NCCS2)cc1)C(=O)O)c1c(Cl)cccc1Cl [Example 62, (S)-2-(2,6-dichlorobenzamido)-3-(4-(4-((4,5-dihydrothiazol-2-yl)amino)butoxy)phenyl)propanoic acid]
O=CNc1cc(C(=O)N[C@@H](Cc2ccc(OCCCc3ccc4c(n3)NCCC4)cc2)C(=O)O)ccc1O [Example 12, (S)-2-(3-formamido-4-hydroxybenzamido)-3-(4-(3-(5,6,7,8-tetrahydro-1,8-naphthyridin-2-yl)propoxy)phenyl)propanoic acid]
Cn1cnc2ccc(C(=O)N[C@@H](Cc3ccc(OCCCc4ccc5c(n4)NCCC5)cc3)C(=O)O)cc21 [Example 2, (S)-2-(1-methyl-1H-benzo[d]imidazole-6-carboxamido)-3-(4-(3-(5,6,7,8-tetrahydro-1,8-naphthyridin-2-yl)propoxy)phenyl)propanoic acid]
O=C(N[C@@H](CCCCCCCc1ccc2c(n1)NCCC2)C(=O)O)c1c(Cl)cccc1Cl [Example 19, (S)-2-(2,6-dichlorobenzamido)-9-(5,6,7,8-tetrahydro-1,8-naphthyridin-2-yl)nonanoic acid]
O=C(N[C@@H](Cc1ccc(OCCCc2ccc3c(n2)NCCC3)cc1)C(=O)O)c1cc(Cl)cc(Cl)c1 [Example 35, (2S)-2-[(3,5-dichlorobenzoyl)amino]-3-[4-[3-(5,6,7,8-tetrahydro-1,8-naphthyridin-2-yl)propoxy]phenyl]propanoic acid]
Cn1ncc2cccc(C(=O)N[C@@H](CCCCCCCc3ccc4c(n3)NCCC4)C(=O)O)c21 [Compound 114]
O=C(N[C@@H](Cc1ccc(OCCCc2ccc3c(n2)NCCC3)cc1)C(=O)O)c1ccc(C2CC2)cc1 [Example 34, (2S)-2-[(4-cyclopropylbenzoyl)amino]-3-[4-[3-(5,6,7,8-tetrahydro-1,8-naphthyridin-2-yl)propoxy]phenyl]propanoic acid]
O=C(N[C@@H](Cc1ccc(OCCCc2ccc3c(n2)NCCC3)cc1)C(=O)O)c1cccnc1 [Example 14, (S)-2-(nicotinamido)-3-(4-(3-(5,6,7,8-tetrahydro-1,8-naphthyridin-2-yl)propoxy)phenyl)propanoic acid]
N#Cc1ccc(Cl)c(C(=O)N[C@@H](CCCCCCCc2ccc3c(n2)NCCC3)C(=O)O)c1 [Compound 100]

IC50, 50 to 250 nM:
O=C(NC(Cc1ccc(COC2CC(Nc3ccccn3)C2)cc1)C(=O)O)c1c(Cl)cccc1Cl [Example 32, (S)-2-(2,6-dichlorobenzamido)-3-(4-(((1s,3R)-3-(pyridin-2-ylamino)cyclobutoxy)methyl)phenyl)propanoic acid trifluoroacetate]
Cn1ncc2ccc(C(=O)N[C@@H](CCCCCCCc3ccc4c(n3)NCCC4)C(=O)O)cc21 [Compound 102]
CC(=O)N1CCN=C(NCCCCOc2ccc(C[C@H](NC(=O)c3c(Cl)cccc3Cl)C(=O)O)cc2)C1 [Example 55, (S)-3-(4-(4-((4-acetyl-3,4,5,6-tetrahydropyrazin-2-yl)amino)butoxy)phenyl)-2-(2,6-dichlorobenzamido)propanoic acid]
Cn1cc2cc(C(=O)N[C@@H](CCCCCCCc3ccc4c(n3)NCCC4)C(=O)O)ccc2n1 [Compound 109]
Cc1nccc(C(=O)N[C@@H](Cc2ccc(OCCCc3ccc4c(n3)NCCC4)cc2)C(=O)O)n1 [Example 8, (S)-2-(2-methylpyrimidine-4-carboxamido)-3-(4-(3-(5,6,7,8-tetrahydro-1,8-naphthyridin-2-yl)propoxy)phenyl)propanoic acid]
O=C(NC(Cc1ccc(COC2CCC(Nc3ccccn3)CC2)cc1)C(=O)O)c1c(Cl)cccc1Cl [Example 31, (S)-2-(2,6-dichlorobenzamido)-3-(4-((((1s,4R)-4-(pyridin-2-ylamino)cyclohexyl)oxy)methyl)phenyl)propanoic acid trifluoroacetate]
O=C(NC(CCCCCCCc1ccc2c(n1)NCCC2)C(=O)O)c1ccc2cn[nH]c2c1 (stereo not drawn) [Compound 98]
Cn1cc2cc(C(=O)NC(CCCCCCCc3ccc4c(n3)NCCC4)C(=O)O)ccc2n1 (stereo not drawn) [Compound 86, 2-(2-methyl-2H-indazole-5-carboxamido)-9-(5,6,7,8-tetrahydro-1,8-naphthyridin-2-yl)nonanoic acid]
O=C(N[C@@H](CCCCCCCc1ccc2c(n1)NCCC2)C(=O)O)c1ccc(-c2ccncc2)cc1 [Compound 112]
Cn1ncc2cc(C(=O)NC(CCCCCCCc3ccc4c(n3)NCCC4)C(=O)O)ccc21 (stereo not drawn) [Compound 82, 2-(1-methyl-1H-indazole-5-carboxamido)-9-(5,6,7,8-tetrahydro-1,8-naphthyridin-2-yl)nonanoic acid]
O=C(N[C@@H](Cc1ccc(OCCCCNC2=NCCO2)cc1)C(=O)O)c1c(Cl)cccc1Cl [Example 61, (S)-2-(2,6-dichlorobenzamido)-3-(4-(4-((4,5-dihydrooxazol-2-yl)amino)butoxy)phenyl)propanoic acid]
Nc1cc(C(=O)N[C@@H](Cc2ccc(OCCCc3ccc4c(n3)NCCC4)cc2)C(=O)O)ccc1O [Example 11, (S)-2-(3-amino-4-hydroxybenzamido)-3-(4-(3-(5,6,7,8-tetrahydro-1,8-naphthyridin-2-yl)propoxy)phenyl)propanoic acid]
